Experimental data taken from patent US20260258050A1, “IMMUNOMODULATOR” (HITGEN INC., priority 2023, published 2026).
pIC50: −log10 of the molar value.

What was measured:
Human IL-17A [1] = target: T1, Human IL-17A (Homo sapiens, UniProt Q16552); assay: Inhibition of human IL-17A protein-induced GROα/CXCL1 production in HT-29 cells; format: cell-based; parameters: purchased R&D 317-ILB; host or cells: added exogenously to HT-29 cells; conditions: 30 ng/mL human IL-17A protein, 48 h, GROα in supernatant by ELISA kit, read-out: Inhibitory IC50 of compounds on HT-29 cell GROα/CXCL1
T1 sequence (Q16552 20-155 limits assumed): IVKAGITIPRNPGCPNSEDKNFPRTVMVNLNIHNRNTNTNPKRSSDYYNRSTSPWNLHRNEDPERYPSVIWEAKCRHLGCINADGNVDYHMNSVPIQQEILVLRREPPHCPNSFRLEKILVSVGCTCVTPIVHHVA
Protocol: Experiment Example 3 Inhibition of Human IL-17A Protein-Induced GROα/CXCL1 Production in HT-29 Cells by Compounds
This assay was conducted to evaluate the ability of the compounds to inhibit human IL-17A protein-induced production of the chemokine growth-regulated oncogene alpha/C-X-C motif chemokine ligand 1 (GROα/CXCL1) in HT-29 cells.
Human colorectal adenocarcinoma epithelial HT-29 cells (Chengdu Zhongyuan Gongchuang Technology Co., Ltd.) were seeded into a 96-well plate at a density of 5×10^4 cells per well and were cultured overnight in an incubator at 37° C.
30 ng/mL of human IL-17A protein (R&D, #317-ILB) was mixed with gradient concentrations of the IL-17A small-molecule inhibitor, or with […] of a positive control IL-17A antibody (R&D, #AF-317-NA). These mixtures were incubated at 37° C. for 1 h and were then added to the plate. The mixtures were co-incubated with the HT-29 cells at 37° C. for 48 h. Thereafter, the level of GROα in the cell culture supernatant was determined using a GROα ELISA kit (Cisbio, #62HCXC1PEG).
The inhibitory activity of each compound was expressed as the half-maximal inhibitory concentration (IC50) for inhibition of GROα/CXCL1 production in HT-29 cells.

Human IL-17A [2] = target: T1, Human IL-17A; assay: IL-17A enzyme-linked immunosorbent assay (competitive ELISA, IL-17A/IL-17Ra receptor-ligand binding); parameters: purchased Sino Biological Inc. 12047-H07B; conditions: human IL-17A coated plate, human IL-17Ra, read-out: IC50, inhibitory activity of compounds on human IL-17A
Protocol: Experimental Example 1 IL-17A Enzyme-Linked Immunosorbent Assay (ELISA)
The inhibitory effects of human IL-17A inhibitors on receptor-ligand binding were quantitatively determined by a competitive enzyme-linked immunosorbent assay (ELISA). The ELISA was performed through the following steps.
Human IL-17A (Sino Biological Inc., Cat #12047-H07B) was diluted with coating buffer (50 mM phosphate-buffered saline (PBS), pH 7.4) to give an IL-17A concentration of 0.2 μg/ml. 100 μL of the resulting solution was added to each well of a 96-well plate, and the plate was incubated at 37° C. for 30 min. In a blank group, 100 100 μL of the coating buffer was added instead of the IL-17A solution.
The plate was washed four times with 10 mM phosphate-buffered saline containing 0.05% Tween-20 (PBST, pH 7.4). 200 μL of PBST was used per well for each wash. After the final wash, the plate was tapped dry on absorbent paper.
Fresh 5% (w/v) skim milk solution was prepared before the experiment. For example, 5 g of skim milk powder (Bio-Rad, 170-6404) was completely dissolved in 100 mL of 10 mM PBST. 200 μL of the 5% (w/v) skim milk solution was added to each well, and the plate was incubated on a shaker at 25° C. for 30 min.
(S4) Preparation of 100× to-be-Tested Compound Solutions
During step (S3), the to-be-tested compound solutions were prepared, respectively. Each powdered compound was dissolved in dimethyl sulfoxide (DMSO) to reach a storage concentration of 10 mM. The to-be-tested compound solutions were then serially diluted four-fold with DMSO to obtain nine storage concentrations ranging from […].
(S6) Pre-incubation of IL-17A with to-be-tested compound solutions
89 μL of PBST and 1 μL of each of the to-be-tested compound solutions were added to each well and mixed. The plate was pre-incubated at 25° C. for 10 min. In the blank group and the control group, 1 μL of DMSO was added instead of the to-be-tested compound solutions.
(S7) Incubation with Human Interleukin-17 Receptor a (IL-17Ra)
10 μL of 16 nM human IL-17Ra (Sino Biological Inc., Cat #10895-H03H) was added, followed by incubation on a shaker at 25° C. for 30 min. The receptor solution was prepared in 10 mM PBST.
(S9) Incubation with Horseradish Peroxidase-Conjugated Antibody
100 μL of mouse anti-Fc tag horseradish peroxidase (HRP)-conjugated antibody (Sino Biological Inc., Cat #10702-MM01T-H) was added to each well. The plate was incubated on a shaker at 25° C. for 30 min. The antibody was diluted with 5% (w/v) skim milk solution at 1:5,000 (v/v).
100 μL of 3,3′,5,5′-tetramethylbenzidine (TMB) substrate solution (BD, Cat #555214) was added to each well. Substrate A and substrate B were freshly mixed at a volume ratio of 1:1 before use. The plate was incubated in the dark at 25° C. for 5-15 min.
(S12) Termination and Detection
The color reaction was terminated by addition of 2.5 M hydrochloric acid (HCl). Absorbance was measured at 450 nm using a BMG PHERStar microplate reader.
(S13) Calculation of Half-Maximal Inhibitory Concentration (IC50)
The relative percent residual activity at each compound concentration was calculated according to Equation 1. The IC50 value of each test compound was then calculated in GraphPad 6 using the equation for log(inhibitor) versus normalized response with variable slope, as shown in Equation 2.
relative percent residual activity (%)=[(absorbance of sample−absorbance of blank group)/(absorbance of control group−absorbance of blank group)]%. Equation 1: […]
The compounds prepared in the above examples were tested for IL-17A inhibitory activity according to the above method.

SMILES	pIC50 (Human IL-17A [1])	pIC50 (Human IL-17A [2])
Cc1[nH]nc2c1-c1cc(F)c(NC(=O)[C@@H](NC(=O)c3ccnn3C(C)C)C(C3CC3)C3CC3)cc1CN(CC(F)F)C(C)C2 (mixture of isomers) [compound 178]	≥ 7.00	≥ 7.30
CSCC(C)n1nccc1C(=O)N[C@H](C(=O)Nc1cc2c(cc1F)-c1c(n[nH]c1C)CCOC2)C(C1CC1)C1CC1 (single isomer, unassigned) [compound 40a]	6.30 to 7.00	6.82 to 7.30
CSCC(C)n1nccc1C(=O)N[C@H](C(=O)Nc1cc2c(cc1F)-c1c(n[nH]c1C)CCOC2)C(C1CC1)C1CC1 (single isomer, unassigned) [compound 40b]	6.30 to 7.00	≥ 7.30
CCC1Cc2n[nH]c(C)c2-c2cc(F)c(NC(=O)[C@@H](NC(=O)c3ccnn3C(C)C)C(C3CC3)C3CC3)cc2CO1 (single isomer, unassigned) [compound 120a]	6.30 to 7.00	6.82 to 7.30
CCC1Cc2n[nH]c(C)c2-c2cc(F)c(NC(=O)[C@@H](NC(=O)c3ccnn3C(C)C)C(C3CC3)C3CC3)cc2CO1 (single isomer, unassigned) [compound 120b]	6.30 to 7.00	≥ 7.30
CCC(C)n1nccc1C(=O)N[C@H](C(=O)Nc1cc2c(cc1F)-c1c(n[nH]c1C)CCOC2)C(C1CC1)C1CC1 (single isomer, unassigned) [compound 123a]	6.30 to 7.00	≥ 7.30
CCC(C)n1nccc1C(=O)N[C@H](C(=O)Nc1cc2c(cc1F)-c1c(n[nH]c1C)CCOC2)C(C1CC1)C1CC1 (single isomer, unassigned) [compound 123b]	6.30 to 7.00	≥ 7.30
Cc1[nH]nc2c1-c1cnc(NC(=O)[C@@H](NC(=O)c3ccnn3C(C)C(F)F)C(C3CC3)C3CC3)cc1COCC2 (single isomer, unassigned) [compound 190a]	6.30 to 7.00	≥ 7.30
Cc1[nH]nc2c1-c1cnc(NC(=O)[C@@H](NC(=O)c3ccnn3C(C)C(F)F)C(C3CC3)C3CC3)cc1COCC2 (single isomer, unassigned) [compound 190b]	6.30 to 7.00	6.82 to 7.30
Cc1[nH]nc2c1-c1cc(F)c(NC(=O)[C@@H](NC(=O)c3ccnn3C(C)C)[C@H]3CC[C@H](C)CC3)cc1COCC2 [compound 45]	6.30 to 7.00	≥ 7.30
CCn1nccc1C(=O)N[C@H](C(=O)Nc1cc2c(cc1F)-c1c(n[nH]c1C)CCOC2)C1CCCCC1 [compound 49]	6.30 to 7.00	≥ 7.30
CCn1nccc1C(=O)N[C@H](C(=O)Nc1cc2c(cn1)-c1c(n[nH]c1C)CCOC2)C(C1CC1)C1CC1 [compound 53]	6.30 to 7.00	≥ 7.30
Cc1[nH]nc2c1-c1cc(F)c(NC(=O)[C@@H](NC(=O)c3ccnn3CC3CC(F)(F)C3)C(C3CC3)C3CC3)cc1COCC2 [compound 64]	6.30 to 7.00	≥ 7.30
Cc1[nH]nc2c1-c1cc(F)c(NC(=O)[C@@H](NC(=O)c3ccnn3CC3(F)CC3)C(C3CC3)C3CC3)cc1COCC2 [compound 79]	6.30 to 7.00	6.82 to 7.30
Cc1[nH]nc2c1-c1cc(F)c(NC(=O)[C@@H](NC(=O)c3ccnn3CCCN3CCOCC3)C(C3CC3)C3CC3)cc1COCC2 [compound 92]	≥ 7.00	≥ 7.30
Cc1[nH]nc2c1-c1cc(F)c(NC(=O)[C@@H](NC(=O)c3ccnn3C(C)C)C(C3CC3)C3CC3)cc1CCCC2 [compound 130]	6.30 to 7.00	≥ 7.30
CCN1CCc2n[nH]c(C)c2-c2cc(F)c(NC(=O)[C@@H](NC(=O)c3ccnn3CC)C(C3CC3)C3CC3)cc2C1 [compound 157]	6.30 to 7.00	≥ 7.30
Cc1[nH]nc2c1-c1cc(F)c(NC(=O)[C@@H](NC(=O)c3conc3C(C)C)C(C3CC3)C3CC3)cc1CN(CC(F)F)C(=O)C2 [compound 171]	≥ 7.00	≥ 7.30
Cc1[nH]nc2c1-c1cc(F)c(NC(=O)[C@@H](NC(=O)c3ccnn3CCCF)C(C3CC3)C3CC3)cc1CN(CC(F)F)C(=O)C2 [compound 172]	≥ 7.00	≥ 7.30
Cc1[nH]nc2c1-c1cc(F)c(NC(=O)[C@@H](NC(=O)c3ccnn3C(C)C)C(C3CC3)C3CC3)cc1CN(C1CCC(F)(F)CC1)CC2 [compound 175]	≥ 7.00	≥ 7.30
Cc1[nH]nc2c1-c1cc(F)c(NC(=O)[C@@H](NC(=O)c3conc3C(C)C)C(C3CC3)C3CC3)cc1CN(CC(F)F)CC2 [compound 180]	≥ 7.00	≥ 7.30
Cc1[nH]nc2c1-c1cc(F)c(NC(=O)[C@@H](NC(=O)c3ccnn3CCCF)C(C3CC3)C3CC3)cc1CN(CC(F)F)CC2 [compound 181]	≥ 7.00	≥ 7.30
Cc1[nH]nc2c1-c1cnc(NC(=O)[C@@H](NC(=O)c3ccnn3C(C)C)C(C3CC3)C3CC3)cc1CN(C1CCC1)C(=O)C2 [compound 197]	≥ 7.00	≥ 7.30
Cc1[nH]nc2c1-c1cnc(NC(=O)[C@@H](NC(=O)c3ccnn3C3CC3)C(C3CC3)C3CC3)cc1CN(C1CC1)CC2 [compound 219]	≥ 7.00	≥ 7.30
CC(C)=C(F)C(=O)N[C@H](C(=O)Nc1cc2c(cc1F)-c1c(n[nH]c1C)CCOC2)C(C1CC1)C1CC1 [compound 232]	≥ 7.00	≥ 7.30
C=C(F)C(=O)N[C@H](C(=O)Nc1cc2c(cc1F)-c1c(n[nH]c1C)CCOC2)C(C1CC1)C1CC1 [compound 233]	≥ 7.00	≥ 7.30
CC(C)=C(F)C(=O)N[C@H](C(=O)Nc1cc2c(cn1)-c1c(n[nH]c1C)CCOC2)C(C1CC1)C1CC1 [compound 244]	≥ 7.00	≥ 7.30
C=C(F)C(=O)N[C@H](C(=O)Nc1cc2c(cn1)-c1c(n[nH]c1C)CCOC2)C(C1CC1)C1CC1 [compound 245]	≥ 7.00	≥ 7.30
